Laboratory results from patent US10722514B2 (FLX Bio, Inc., priority 2017, dated 2020).
Structures can show the parent of a compound that is named as a salt. Where two headings read alike, the source gives them in different places.

Biological target: T1, recombinant full-length USP7 (Homo sapiens, UniProt Q93009)
T1 construct: A 25 μl reaction volume containing recombinant full-length USP7 (62 pM)
Assay: USP7-mediated ubiquitin-rhodamine cleavage assay
Format: biochemical
Details: recombinant full-length USP7 62 pM, ubiquitin-rhodamine 100 nM, 1 hour reaction at room temperature
Experimental: In the case of the USP7 deubiquitylating enzyme, the IC50 of an USP7 inhibiting compound is the concentration of the compound that inhibits 50% of the activity observed in a USP7-mediated ubiquitin-rhodamine cleavage assay.
For the USP7 inhibitors disclosed herein, their potency was measured using the following test method.
A 25 μl reaction volume containing recombinant full-length USP7 (62 pM) in 20 mM HEPES pH 7.3, 150 mM NaCl, 1 mM TCEP, and 125 μg/ml BSA was assembled in wells of 384 well plates. Test compounds were dispensed with a Hewlett Packard D300 digital dispenser (1% final DMSO). Following a 30-minute incubation at room temperature, ubiquitin-rhodamine was added with the D300 to a final concentration of 100 nM and the reaction was allowed to proceed for 1 hour at room temperature protected from light. The reaction was stopped by the addition of 5 μl 1M acetic acid. Rhodamine fluorescence was measured using an Envision plate reader (Perkin Elmer) and IC50 values were determined by non-linear regression using a 4-parameter fit in a Dotmatics (Bishops Stortford, Hertfordshire, England) software package.

[1] = 30-minute incubation with compound, read-out: Potency: USP7 IC50
[2] = 30-minute pre-incubation, read-out: Potency (USP7 IC50)
[3] = 30-minute incubation, read-out: Potency (USP7 IC50)

T1 sequence (Q93009 whole entry): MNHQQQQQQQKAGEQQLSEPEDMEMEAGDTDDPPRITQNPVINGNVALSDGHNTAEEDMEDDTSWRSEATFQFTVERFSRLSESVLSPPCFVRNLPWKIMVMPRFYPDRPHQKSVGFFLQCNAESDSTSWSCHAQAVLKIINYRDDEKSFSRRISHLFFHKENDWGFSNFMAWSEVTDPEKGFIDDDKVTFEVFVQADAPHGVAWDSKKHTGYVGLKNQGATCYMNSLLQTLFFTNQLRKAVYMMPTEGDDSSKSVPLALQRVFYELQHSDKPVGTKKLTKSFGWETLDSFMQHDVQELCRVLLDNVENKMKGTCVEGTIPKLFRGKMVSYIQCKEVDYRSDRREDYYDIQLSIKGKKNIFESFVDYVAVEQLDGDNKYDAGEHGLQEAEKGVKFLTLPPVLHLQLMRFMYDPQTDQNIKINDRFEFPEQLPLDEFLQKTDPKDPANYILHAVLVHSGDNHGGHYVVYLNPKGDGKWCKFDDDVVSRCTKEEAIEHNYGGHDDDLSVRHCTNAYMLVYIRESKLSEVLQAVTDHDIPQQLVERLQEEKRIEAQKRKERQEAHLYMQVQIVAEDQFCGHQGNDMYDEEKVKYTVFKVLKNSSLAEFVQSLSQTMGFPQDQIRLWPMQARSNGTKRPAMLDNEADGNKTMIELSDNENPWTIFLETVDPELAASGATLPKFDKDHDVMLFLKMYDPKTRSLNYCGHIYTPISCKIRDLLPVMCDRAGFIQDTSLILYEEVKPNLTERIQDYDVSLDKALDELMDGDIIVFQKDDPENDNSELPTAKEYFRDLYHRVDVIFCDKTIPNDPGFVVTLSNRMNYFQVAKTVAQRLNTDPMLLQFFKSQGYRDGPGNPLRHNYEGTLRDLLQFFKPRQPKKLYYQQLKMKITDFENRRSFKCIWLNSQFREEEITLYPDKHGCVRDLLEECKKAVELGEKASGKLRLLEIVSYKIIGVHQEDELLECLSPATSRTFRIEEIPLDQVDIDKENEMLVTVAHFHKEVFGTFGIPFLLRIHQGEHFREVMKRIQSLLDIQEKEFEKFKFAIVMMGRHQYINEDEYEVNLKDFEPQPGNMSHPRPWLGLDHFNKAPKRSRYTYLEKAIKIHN

## 3-((7-(5-Chloro-3-methyl-2-(((1R,3R)-3-morpholinocyclopentyl)oxy)phenyl)thieno[3,2-b]pyridin-2-yl)methyl)-1-(2,2,2-trifluoroethyl)pyrimidine-2,4(1H,3H)-dione [Example 246]
[1]
  IC50: < 1 µM

## Cc1cc(Cl)cc(-c2ccnc3cc([C@H](C)N4C(=O)C5C(C4=O)C5(C)C)sc23)c1OC1CCC(C)NC1 (stereo partly drawn) [Example 396, 3-[(1S)-1-[7-[5-chloro-3-methyl-2-[(6-methyl-3-piperidyl)oxy]phenyl]thieno[3,2-b]pyridin-2-yl]ethyl]-6,6-dimethyl-3-azabicyclo[3.1.0]hexane-2,4-dione; 2,2,2-trifluoroacetic acid]
[1]
  IC50: < 1 µM

## Cc1cc(Cl)cc(-c2ncnc3cc(Cn4c(=O)ccn(CC(F)(F)F)c4=O)sc23)c1OC1CNC1 [Example 587, 3-[[4-[2-(azetidin-3-yloxy)-5-chloro-3-methyl-phenyl]thieno[3,2-d]pyrimidin-6-yl]methyl]-1-(2,2,2-trifluoroethyl)pyrimidine-2,4-dione]
[2]
  IC50: < 1 µM

## Cc1cc(Cl)cc(-c2ccnc3cc(Cn4c(=O)ccn(C)c4=O)sc23)c1O[C@@H]1CNC[C@H](C)C1 [Example 524, 3-[[7-[5-chloro-3-methyl-2-[[(3S,5R)-5-methyl-3-piperidyl]oxy]phenyl]thieno[3,2-b]pyridin-2-yl]methyl]-1-methyl-pyrimidine-2,4-dione]
[2]
  IC50: < 1 µM

## Cc1cc(Cl)cc(-c2ccnc3cc(CN4C(=O)CCC4=O)sc23)c1O[C@H]1[C@@H]2CNC[C@H]1C2 [Example 206, 1-((7-(2-(((1R,5S,6s)-3-Azabicyclo[3.1.1]heptan-6-yl)oxy)-5-chloro-3-methylphenyl)thieno[3,2-b]pyridin-2-yl)methyl)pyrrolidine-2,5-dione]
[1]
  IC50: < 1 µM

## Cc1cc(Cl)cc(-c2ccnc3cc(CO)sc23)c1O[C@@H]1CN[C@H](C)C1 [Example 62, (7-(5-Chloro-3-methyl-2-(((3S,5R)-5-methylpyrrolidin-3-yl)oxy)phenyl)thieno[3,2-b]pyridin-2-yl)methanol]
[1]
  IC50: 10 to 30 µM

## CCC(O)c1cc2nccc(-c3cc(Cl)cc(C)c3O[C@@H]3CCNC3)c2s1 (stereo partly drawn) [Example 51, 1-(7-(5-Chloro-3-methyl-2-(((R)-pyrrolidin-3-yl)oxy)phenyl)thieno[3,2-b]pyridin-2-yl)propan-1-ol]
[1]
  IC50: 1 to 10 µM

## COC1CCN(C2CC(Oc3c(C)cc(Cl)cc3-c3ccnc4cc(Cn5c(=O)ccn(CC(F)(F)F)c5=O)sc34)C2)C1 (stereo not shown) [Example 684, 3-[[7-[5-chloro-2-[3-(3-methoxypyrrolidin-1-yl)cyclobutoxy]-3-methyl-phenyl]thieno[3,2-b]pyridin-2-yl]methyl]-1-(2,2,2-trifluoroethyl)pyrimidine-2,4-dione; 2,2,2-trifluoroacetic acid]
[3]
  IC50: < 1 µM

## Cc1cc(Cl)cc(-c2ccnc3cc(CN4C(=O)C5CCCCN5C4=O)sc23)c1O[C@@H]1CNC[C@@H]1F (stereo partly drawn) [Example 138, 2-((7-(5-Chloro-2-(((3R,4S)-4-fluoropyrrolidin-3-yl)oxy)-3-methylphenyl)thieno[3,2-b]pyridin-2-yl)methyl)tetrahydroimidazo[1,5-a]pyridine-1,3(2H,5H)-dione]
[1]
  IC50: < 1 µM

## Cc1cc(Cl)cc(-c2ccnc3cc(Cn4c(=O)c(C)cn(C)c4=O)sc23)c1O[C@@H]1CNC[C@@H]1F [Example 480, 3-[[7-[5-chloro-2-[(3R,4S)-4-fluoropyrrolidin-3-yl]oxy-3-methyl-phenyl]thieno[3,2-b]pyridin-2-yl]methyl]-1,5-dimethyl-pyrimidine-2,4-dione]
[2]
  IC50: < 1 µM

## Cc1cc(Cl)cc(-c2ccnc3cc(CN4C(=O)CC5(CCC5)C4=O)sc23)c1O[C@H]1CCCNC1 [Example 317, 6-[[7-[5-chloro-3-methyl-2-[[(3S)-3-piperidyl]oxy]phenyl]thieno[3,2-b]pyridin-2-yl]methyl]-6-azaspiro[3.4]octane-5,7-dione; 2,2,2-trifluoroacetic acid]
[1]
  IC50: < 1 µM

## Cc1cc(Cl)cc(-c2ccnc3cc(Cn4c(=O)cc(C(F)(F)F)n(C)c4=O)sc23)c1O[C@H]1CCCNC1 [Example 515, 3-[[7-[5-chloro-3-methyl-2-[[(3S)-3-piperidyl]oxy]phenyl]thieno[3,2-b]pyridin-2-yl]methyl]-1-methyl-6-(trifluoromethyl)pyrimidine-2,4-dione; 2,2,2-trifluoroacetic acid]
[2]
  IC50: < 1 µM

## Cc1cc(Cl)cc(-c2ccnc3cc(Cn4c(=O)ccn(C)c4=O)sc23)c1OC1CCNC(C)(C)C1 (stereo not shown) [Example 572, 3-[[7-[5-chloro-2-[(2,2-dimethyl-4-piperidyl)oxy]-3-methyl-phenyl]thieno[3,2-b]pyridin-2-yl]methyl]-1-methyl-pyrimidine-2,4-dione; 2,2,2-trifluoroacetic acid]
[2]
  IC50: < 1 µM

## Cc1cc(Cl)cc(-c2ccnc3cc(Cn4c(=O)ccn(CC(F)(F)F)c4=O)sc23)c1O[C@@H]1C[C@@H]2NCCO[C@H]2C1 [Example 695, 3-[[7-[2-[[(4aS,6R,7aS)-2,3,4,4a,5,6,7,7a-octahydrocyclopenta[b][1,4]oxazin-6-yl]oxy]-5-chloro-3-methyl-phenyl]thieno[3,2-b]pyridin-2-yl]methyl]-1-(2,2,2-trifluoroethyl)pyrimidine-2,4-dione]
[3]
  IC50: < 1 µM

## CC(=O)NCc1cc2nccc(-c3cc(Cl)cc(C)c3O[C@@H]3CNC[C@@H]3F)c2s1 [Example 91, N-((7-(5-Chloro-2-(((3R,4S)-4-fluoropyrrolidin-3-yl)oxy)-3-methylphenyl)thieno[3,2-b]pyridin-2-yl)methyl)acetamide]
[1]
  IC50: < 1 µM

## Cc1cc(Cl)cc(-c2ccnc3cc(CN4C(=O)CCC4=O)sc23)c1OC1CC(C)(N)C1 (stereo not shown) [Example 443, 1-[[7-[2-(3-amino-3-methyl-cyclobutoxy)-5-chloro-3-methyl-phenyl]thieno[3,2-b]]pyridin-2-yl]methyl]pyrrolidine-2,5-dione dihydrochloride]
[2]
  IC50: < 1 µM

## Cc1cc(Cl)cc(-c2ccnc3cc(Cn4c(=O)ccn(CC(F)(F)F)c4=O)sc23)c1O[C@H]1CNC[C@@H]1C [Example 627, 3-[[7-[5-chloro-3-methyl-2-[(3R,4S)-4-methylpyrrolidin-3-yl]oxy-phenyl]thieno[3,2-b]pyridin-2-yl]methyl]-1-(2,2,2-trifluoroethyl)pyrimidine-2,4-dione]
[2]
  IC50: < 1 µM

## Cc1cc(Cl)cc(-c2ncnc3cc(Cn4c(=O)ccn(CC(F)(F)F)c4=O)sc23)c1O[C@H]1CCCNCC1 [Example 580, 3-[[4-[2-[(4S)-azepan-4-yl]oxy-5-chloro-3-methyl-phenyl]thieno[3,2-d]pyrimidin-6-yl]methyl]-1-(2,2,2-trifluoroethyl)pyrimidine-2,4-dione; 2,2,2-trifluoroacetic acid]
[2]
  IC50: < 1 µM

## N#Cc1cc(Cl)cc(-c2ccnc3cc(CO)sc23)c1O[C@H]1CCCNC1 [Example 239, (S)-5-Chloro-3-(2-(hydroxymethyl)thieno[3,2-b]pyridin-7-yl)-2-(piperidin-3-yloxy)benzonitrile]
[1]
  IC50: > 30 µM

## Cc1cc(Cl)cc(-c2ccnc3cc(CN4C(=O)CCC4=O)sc23)c1O[C@@H]1CNC[C@@H]1C [Example 105, 1-((7-(5-Chloro-3-methyl-2-(((3S,4S)-4-methylpyrrolidin-3-yl)oxy)phenyl)thieno[3,2-b]pyridin-2-yl)methyl)pyrrolidine-2,5-dione]
[1]
  IC50: < 1 µM

## Cc1cc(Cl)cc(-c2ccnc3cc(Cn4c(=O)c(C(F)(F)F)cn(C)c4=O)sc23)c1O[C@H]1CCCNC1 [Example 581, 3-[[7-[5-chloro-3-methyl-2-[[(3S)-3-piperidyl]oxy]phenyl]thieno[3,2-b]pyridin-2-yl]methyl]-1-methyl-5-(trifluoromethyl)pyrimidine-2,4-dione; 2,2,2-trifluoroacetic acid]
[2]
  IC50: < 1 µM

## Cc1cc(Cl)cc(-c2ccnc3cc(Cn4c(=O)ccn(CC(F)(F)F)c4=O)sc23)c1O[C@H]1C[C@@H]2NCCO[C@@H]2C1 [Example 696, 3-[[7-[2-[[(4aS,6S,7aR)-2,3,4,4a,5,6,7,7a-octahydrocyclopenta[b][1,4]oxazin-6-yl]oxy]-5-chloro-3-methyl-phenyl]thieno[3,2-b]pyridin-2-yl]methyl]-1-(2,2,2-trifluoroethyl)pyrimidine-2,4-dione]
[3]
  IC50: < 1 µM

## CC[C@H]1C[C@@H](Oc2c(C)cc(Cl)cc2-c2ccnc3cc(Cn4c(=O)ccn(C)c4=O)sc23)CCN1 [Example 610, 3-[[7-[5-chloro-2-[[(2S,4S)-2-ethyl-4-piperidyl]oxy]-3-methyl-phenyl]thieno[3,2-b]pyridin-2-yl]methyl]-1-methylpyrimidine-2,4-dione]
[2]
  IC50: < 1 µM

## Cc1cc(Cl)cc(-c2ccnc3cc(Cn4c(=O)ccn(C)c4=O)sc23)c1OCC(C)N (stereo not shown) [Example 554, 3-[[7-[2-(2-aminopropoxy)-5-chloro-3-methyl-phenyl]thieno[3,2-b]pyridin-2-yl]methyl]-1-methyl-pyrimidine-2,4-dione; 2,2,2-trifluoroacetic acid]
[2]
  IC50: < 1 µM

## Cc1cc(Cl)cc(-c2ccnc3cc(Cn4c(=O)ccn(CC(F)(F)F)c4=O)sc23)c1O[C@H]1CCNC[C@H]1C [Example 565, 3-[[7-[5-chloro-3-methyl-2-[[(3R,4S)-3-methyl-4-piperidyl]oxy]phenyl]thieno[3,2-b]pyridin-2-yl]methyl]-1-(2,2,2-trifluoroethyl)pyrimidine-2,4-dione]
[2]
  IC50: < 1 µM
